Test results published in article PMC8495455, “Discovery of a transdermally deliverable pentapeptide for activating AdipoR1 to promote hair growth” (EMBO Molecular Medicine, 2021).

How the values were obtained:
[1] = test system: p-AMPK in human buttock skin; test: Topical application of P5 on human skin in vivo, p-AMPK (IF, Western blot); settings: topical 0.075, 0.75, 1.5, or 7.5 mM on buttock, occluded, 24 h; IF and Western blot
From the text: Next, we checked whether topically applied P5 can be delivered into human skin using ex vivo skin tissue culture model (Fig EV4A) (Haslam et al, [2018]). After topical application of vehicle or P5 on the ex vivo skin tissue, the dermal lysate of each tissue was examined by the qualitative mass spectrometry (MS). […] To trace the origin of P5, we used isotope‐marked P5 (P5*), in which carbon (^12C) atoms of Gly were substituted with isotope carbon atoms (^13C) increasing the molecular weight by 2 compared to that of original P5 (Fig EV4B). […] Collectively, P5 can be transdermally delivered into human skin.
Human ORS and DP cells or skin tissue were lysed (RIPA lysis buffer; #20‐188; Merck Millipore). The obtained protein was then separated by 8% SDS–PAGE and transferred to a polyvinylidene fluoride membrane (Amersham). The protein transferred membranes were incubated overnight with the specific antibodies. […] Antibody‐antigen complexes detected by enhanced chemiluminescent substrate (Thermo Fisher) were captured and quantified by Amersham imager 680 systems (GE Healthcare).
Paraffin‐embedded mouse cutaneous back tissue was sectioned (4 μm thickness) and stained with hematoxylin and eosin. […] IF intensity was observed and recorded with a Nikon Eclipse Ni‐E fluorescence microscope (Nikon). […]

human ORS cells = test: MTT cell proliferation assay, ORS cells; format: cell-based; settings: 0.5 or 5 μg/ml, 48 h, Paired t-test vs control
From the text: To design transdermally deliverable AdipoR1 agonist, we further assessed the 15‐mer sequence by cutting it into several 5‐mer peptides (Fig EV1B) (Bos & Meinardi, [2000]). Based on the fact that AdipoRs are expressed in HF cells, including dermal papilla (DP) and outer root sheath (ORS) cells (Won et al, [2012]), we performed a cell proliferation assay on human DP and ORS cells to see if there is any potential biological effect of the 5‐mer peptides on the human HF cells.
Dermal papilla cells and ORS cells were seeded into a 96‐well plate (1.0 × 10^4 cells/well) with serum‐free culture media for 24 h and then treated with each candidate 5‐mer peptide (in 0.5 μg/ml or 5 μg/ml) for 48 h. After the addition of MTT solution (20 μl, 5 mg/ml) to each well, the cells were incubated for 4 h at 37°C in the dark room and then incubated with dimethyl sulfoxide (DMSO, 200 μl) for 20 min at room temperature. The samples were assessed by measuring the absorbance at 570 nm with an absorbance microplate reader (VersaMax).

[2] = test system: p-AMPK in HF cells of Adipoq−/− mice; test: IF p-AMPK in HF cells of Adipoq−/− mice after topical P5; format: in vivo; settings: Adipoq−/− mouse, topical 0.1 mM P5
From the text: We also evaluated P5 effect in Adipoq ^−/− mouse (Ma et al, [2002]). […] Skin pigmentation was prominent in P5‐treated Adipoq ^−/− mice at day 14 (Fig 4E). […] At day 35, unlike vehicle‐treated Adipoq ^−/− mice showing little pigmentation, P5‐treated Adipoq ^−/− mice manifested hairs with pigmentation (Fig 4E). […] The DP cells in P5‐treated Adipoq ^−/− mice expressed versican (Fig 4G).
Paraffin‐embedded mouse cutaneous back tissue was sectioned (4 μm thickness) and stained with hematoxylin and eosin. […] IF intensity was observed and recorded with a Nikon Eclipse Ni‐E fluorescence microscope (Nikon).
For the hair cycle modulation experiment, Adipoq ^−/− (stock #008195; JAX) (Ma et al, [2002]), Adipor1 ^−/− (Yamauchi et al, [2007]; Okada‐Iwabu et al, [2013]), or C57BL/6 (KOATECH) female mice was used (Müller‐Röver et al, [2001]). […] The mouse hair growth score (a value from 0 to 100 based on the skin pigmentation and hair shaft density) was monitored and documented at designated days with the experimenters being blind to the conditions, following a previous study (Chai et al, [2019]). […] On day 35, we obtained dorsal cutaneous tissue for histological analysis: anagen induction scores (calculated using an assigned arbitrary score; telogen = 1, anagen I–VI = 2–7) (Müller‐Röver et al, [2001]).

C57BL/6 (WT) mice [3] = test: Mouse hair cycle modulation, histology and anagen induction score, WT mice; format: in vivo
From the text: (§1) First, we topically applied P5 and minoxidil as a positive control (Messenger & Rundegren, [2004]) on wildtype (WT) mouse. […] Overall, the hair cycle score was higher in the P5‐treated mice than vehicle‐treated mice (Fig 4B). […] Collectively, P5 induces anagen hair cycle in vivo.
Paraffin‐embedded mouse cutaneous back tissue was sectioned (4 μm thickness) and stained with hematoxylin and eosin. For IF staining, human ORS cells cultured in FiTC‐P5, sectioned paraffin‐embedded human HFs (7 μm thickness), and sectioned paraffin‐embedded mouse cutaneous dorsal tissue or human skin tissue (5 μm thickness) were incubated at 4°C overnight with the following primary antibodies diluted in the diluent reagent (Invitrogen): phospho‐AMPK (#2535, 1:100; Cell Signaling), Ki‐67 (#M7240, 1:200; Dako), versican (#ab177480, 1:200; Abcam), or AdipoR1 antibody (#ab126611, 1:200; Abcam). After three washes with PBS, the slides were incubated with the secondary Alexa Fluor 488‐labeled anti‐mouse or rabbit IgG antibody (#ab150077, #ab150113, 1:200; Invitrogen), or Alexa Fluor 594‐labeled anti‐rabbit IgG antibody (#a11012, 1:200; Invitrogen) at 25°C for 1 h. Nuclei were counterstained with 4′,6‐diamidino‐2‐phenylindole (DAPI; #D1306, 1:1,000; Invitrogen). Microscopic observations were performed with a Nikon Eclipse Ci‐L microscope (Nikon). IF intensity was observed and recorded with a Nikon Eclipse Ni‐E fluorescence microscope (Nikon).
(§2) For the hair cycle modulation experiment, Adipoq ^−/− (stock #008195; JAX) (Ma et al, [2002]), Adipor1 ^−/− (Yamauchi et al, [2007]; Okada‐Iwabu et al, [2013]), or C57BL/6 (KOATECH) female mice was used (Müller‐Röver et al, [2001]). They were housed (up to four animals per cage; 23 ± 2°C, 8:00–20:00, 12 h/12 h light/dark cycle). Mice were fed a standard chow diet and provided food and water ad libitum. Mice were randomly allocated and shaved dorsally at 7.5 weeks of age. Only mice in telogen were included for the further experiments (Müller‐Röver et al, [2001]). From 8 weeks of age, the shaved dorsal area was treated with vehicle control (ethanol and polyethylene glycol, 30% and 70% v/v), P5 (0.1 mM), or minoxidil (3%) every day. The mouse hair growth score (a value from 0 to 100 based on the skin pigmentation and hair shaft density) was monitored and documented at designated days with the experimenters being blind to the conditions, following a previous study (Chai et al, [2019]). A higher score corresponds to a transition from telogen to anagen. On day 35, we obtained dorsal cutaneous tissue for histological analysis: anagen induction scores (calculated using an assigned arbitrary score; telogen = 1, anagen I–VI = 2–7) (Müller‐Röver et al, [2001]).

C57BL/6 (WT) mice [4] = test: Mouse hair cycle modulation, hair cycle score, WT mice; format: in vivo; settings: for Gross morphology of dorsum: topical
From the text: as §1, §2

GLYYF [P5, GST-fused (GST-P5) in pulldown assays]
Phosphorylation of AMPK in human skin in vivo [1]: induced the phosphorylation of AMPK in dermis as well as epidermis
Cell proliferative effect, ORS cells (human ORS cells): significant cell proliferative effects
p-AMPK in ORS cells of telogen HFs [2]: upregulation
Histological examination of HFs (C57BL/6 (WT) mice [3]; H&E): anagen HFs were noticeable
Anagen induction scores vs vehicle (C57BL/6 (WT) mice [3]; One-way ANOVA with Tukey's test): significantly higher
Hair cycle score vs vehicle (C57BL/6 (WT) mice [4]; n = 16 mice/group, Two-way ANOVA): higher
Gross morphology of dorsum (C57BL/6 (WT) mice [4]; day 14): obvious pigmentation and hair
Gross morphology of dorsum (C57BL/6 (WT) mice [4]; day 35): manifested a black hair coat
